According to PMC7515946, “Targeting of Perforin Inhibitor into the Brain Parenchyma Via a Prodrug Approach Can Decrease Oxidative Stress and Neuroinflammation and Improve Cell Survival” (Molecular Neurobiology, 2020):
Where “and” joins values, the source holds several entries; their conditions need not be identical. Equal values may be shown once. Entries after “also recorded” stand apart in the source; their conditions may differ. Read-outs that look alike come from different tables or passages of the source.

How the values were obtained:
[1] = Transporter-mediated cellular uptake into primary astrocytes; assay type: in vitro ADME; details: C57BL/6JOlaHsd, mouse
Method: (§1) For the cell uptake experiments, the astrocytes were seeded on 24-well plates with a density of 10 × 10^4 cells/well 3 days before the experiments. […]; Agilent Technologies, Santa Clara, CA). […] The concentrations of each compound in cell lysates were calculated from the standard curve that was prepared by spiking known amounts of compounds to ACN including the selected internal standard and normalized with protein concentration. The protein concentrations on each plate were determined as a mean of three samples by Bio-Rad Protein Assay, based on the Bradford dye-binding method, using bovine serum albumin (BSA) as a standard protein and measuring the absorbance (595 nm) by a multiplate reader (EnVision, Perkin Elmer, Inc., Waltham, MA, USA).

mouse primary astrocytes = test: as above; assay type: in vitro ADME; details: for Vmax of cellular uptake (maximum transport capacity): 1–200 μM, 30 min
Method: as §1

[2] = molecular target: T1, acetylcholinesterase (AChE) (Mus musculus, UniProt P21836); test: biochemical; details: for IC50: mouse brain S9 fraction, acetylthiocholine 1 mM, 30 min endpoint
T1 construct: mouse brain S9 fraction was prepared by homogenizing freshly collected mouse brain; from tissue; host or cells: mouse brain S9 fraction (9000 x g supernatant)
T1 sequence (P21836 32-614): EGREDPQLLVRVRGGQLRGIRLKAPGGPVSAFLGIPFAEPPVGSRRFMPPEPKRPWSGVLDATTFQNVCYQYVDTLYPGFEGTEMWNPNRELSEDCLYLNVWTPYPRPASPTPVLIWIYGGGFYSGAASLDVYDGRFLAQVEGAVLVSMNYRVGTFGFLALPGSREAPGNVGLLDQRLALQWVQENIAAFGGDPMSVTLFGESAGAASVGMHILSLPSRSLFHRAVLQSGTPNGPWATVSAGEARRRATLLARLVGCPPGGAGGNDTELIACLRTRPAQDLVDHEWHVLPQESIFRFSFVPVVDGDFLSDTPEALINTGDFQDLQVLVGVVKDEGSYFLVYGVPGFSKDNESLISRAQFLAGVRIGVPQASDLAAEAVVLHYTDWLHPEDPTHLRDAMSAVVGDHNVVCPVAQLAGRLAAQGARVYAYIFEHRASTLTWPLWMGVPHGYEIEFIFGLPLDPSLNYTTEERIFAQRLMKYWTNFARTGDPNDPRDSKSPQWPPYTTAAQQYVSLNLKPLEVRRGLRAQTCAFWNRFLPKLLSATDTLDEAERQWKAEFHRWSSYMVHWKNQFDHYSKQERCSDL
Method: (§2) Briefly, mouse brain S9 fraction was prepared by homogenizing freshly collected mouse brain with 50 mM Tris-buffered saline (TBS) (pH 7.4) (1:4 w/v), centrifuging the homogenate at 9000 × g for 20 min at 4 °C and collecting the supernatant. The supernatant was then diluted 1:10 with phosphate buffer (100 mM; pH 7.0) and mixed with Ellman’s reagent (DTNB; 1 mM) and studied compounds in DMSO (DMSO concentration was less than 0.5%) on a 96-well plate as 3 parallel assays.
According to the Hanes–Woolf plots, the ratio of initial substrate concentration to the reaction velocity ([S]/v) was plotted against the substrate concentration (μM).

primary astrocytes = test: Ability to affect cell growth of primary astrocytes (resazurin); assay type: cell-based; details: 72 h
[3] = molecular target: T2, butyrylcholinesterase (BChE) (Mus musculus, UniProt Q03311); assay type: biochemical; details: mouse brain S9 fraction, butyrylthiocholine 1 mM, 30 min endpoint
T2 construct: mouse brain S9 fraction was prepared by homogenizing freshly collected mouse brain; from tissue; host or cells: mouse brain S9 fraction (9000 x g supernatant)
T2 sequence (Q03311 30-603): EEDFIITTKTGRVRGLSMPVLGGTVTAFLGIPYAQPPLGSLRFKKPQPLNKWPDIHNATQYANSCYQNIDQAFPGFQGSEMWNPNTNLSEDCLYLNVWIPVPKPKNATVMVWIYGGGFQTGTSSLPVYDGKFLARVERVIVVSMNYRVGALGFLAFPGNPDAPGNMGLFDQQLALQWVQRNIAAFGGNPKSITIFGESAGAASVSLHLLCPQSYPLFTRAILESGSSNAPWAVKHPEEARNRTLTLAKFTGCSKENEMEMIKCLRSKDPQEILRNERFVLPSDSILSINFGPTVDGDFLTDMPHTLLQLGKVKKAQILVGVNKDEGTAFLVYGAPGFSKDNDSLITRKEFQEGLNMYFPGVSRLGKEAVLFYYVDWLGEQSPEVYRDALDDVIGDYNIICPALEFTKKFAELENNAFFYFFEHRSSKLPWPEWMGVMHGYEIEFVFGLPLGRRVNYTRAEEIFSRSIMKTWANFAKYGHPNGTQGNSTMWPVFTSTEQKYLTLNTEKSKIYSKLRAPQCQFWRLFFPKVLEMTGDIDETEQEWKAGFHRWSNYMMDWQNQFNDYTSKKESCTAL
Method: as §2

caspase-3/-7 = test: Caspase-3/-7 in brain of LPS-induced neuroinflammation mice; assay type: in vivo, mouse; details: for Brain caspase-3/-7 amounts, preventative treatment: 30 μmol/kg for 4 days together with LPS 250 μg/kg for 3 days; for Brain caspase-3/-7 amounts, preventative treatment / Brain caspase-3/-7 amounts, curative treatment: relative to control; for Brain caspase-3/-7 amounts, curative treatment: 30 μmol/kg on days 3 and 4, LPS 250 μg/kg for 3 days
Method: Adult male C57BL/6JOlaHsd mice (Jackson Laboratories, Bar Harbor, ME, USA) were supplied by Envigo (Venray, Netherlands). Mice were housed in stainless steel cages on a 12-h light (07:00–19:00) and 12-h dark (19:00–07:00) cycle at an ambient temperature of 22 ± 1 °C with a relative humidity of 50–60%. All experiments were carried out during the light phase. Tap water and food pellets (Lactamin R36; Lactamin AB, Södertälje, Sweden) were available ad libitum. Neuroinflammation was induced by the treatment with LPS 250 μg/kg i.p once per day for 3 consequent days followed by decapitation on the 4th day. The animals were allocated to one of four treatment groups (n = 6 per group): (1) LPS-treated mice, (2) mice treated with LPS and the studied compound (30 μmol/kg; i.v.) for 3 days and 120 min before the decapitation on the 4th day (preventative efficacy), (3) mice treated with LPS for 3 days and with the studied compound (30 μmol/kg; i.v.) only for the last 2 days, and (4) control mice treated with 0.9% NaCl solution i.p. once per day for 3 days. After decapitation, mouse blood and brain samples were collected. […] The plasma layer was centrifuged again at 12,000 × g to remove the platelets. Plasma was stored at − 80 °C until analysis. The brains were snap-frozen in liquid nitrogen and stored at − 80 °C until analysis.
The effects of the compounds on the enzyme activity of caspase-3 and caspase-7 were evaluated from the snap-frozen mouse brain. Pieces of tissues (n = 3) were homogenized in 50 mM Tris–HCl (pH 7.4) 1:10 (w/v) with a bead mill homogenizer. […] The enzyme activity was measured with an Apo-ONE Homogenous Caspase-3/7 Assay kit (Promega Corporation, Madison, WI, USA) according to the manufacturer’s instruction. The assay was performed on 96-well plates, each sample having 3 replicates. Each of the sample wells contained 100 μL of the previously collected supernatant and 100 μL of the prepared Apo-ONE reagent. The blank measurement was carried out with the homogenization buffer and Apo-ONE reagent. Once all the samples and reagents were pipetted in the wells, the plate was carefully shaken for 30 s and left for incubation in dark at room temperature. The fluorescence was measured after the incubation with an EnVision 2104 Multilabel Reader (PerkinElmer, Waltham, MA, USA), with λex 499 nm and λem 521 nm. The measurement was repeated on multiple time points between 0.5 and 24 h.

[4] = design: method as in PMID 27266990; details: cited from earlier work
[5] = 1–200 μM, 30 min, read-out: Km of cellular uptake

Structure (SMILES): N[C@H](Cc1cccc(C(=O)OCc2ccc(-c3ccc(-c4ccc5c(c4)COC5=O)s3)cc2)c1)C(=O)O [PFI-PD]
- Km at 30 min [1, 5]: 720 µM
- Vmax of cellular uptake (maximum transport capacity) (mouse primary astrocytes): 54 ± 7 nmol/min/mg protein
- Type of AChE inhibition ([2]; Hanes–Woolf plot): mixed-type
- Vmax of AChE reaction in presence of inhibitor ([2]; mouse brain S9, acetylthiocholine, PFI-PD (12 μM), without inhibitor 2.21 ± 0.01): 2.17 nmol/min/mg protein and 2.17 ± 0.02 nmol/min/mg protein
- IC50 [2]: 8 µM and 8.15 µM
- Increase of astrocyte cell growth (primary astrocytes; 5–100 μM, vs control cells): 35–87%
- Effect on astrocyte cell growth / viability (primary astrocytes; 5–400 μM): did not exert any inhibitory effects; also recorded: did not affect the cell viability
- BChE IC50 value [3]: No inhibition
- Brain caspase-3/-7 amounts, preventative treatment (caspase-3/-7): 68%
- Brain caspase-3/-7 amounts, curative treatment (caspase-3/-7): 63%
- Brain caspase-3/-7 levels after prodrug treatment (caspase-3/-7; LPS-induced mice, LPS level given as 117%): 72–74%
- Reduction of brain caspase-3/-7 levels (caspase-3/-7; as stated in the discussion (from 117 to 72–74%)): over 40%
- Brain Cmax ([4]; dose 23 μmol/kg): 0.12 nmol/g of tissue
- Unbound brain Cmax,u ([4]; dose 23 μmol/kg): 0.002 nmol/g of tissue

Structure (SMILES): O=C1OCc2cc(-c3ccc(-c4ccc(CO)cc4)s3)ccc21 [PFI]
- Km at 30 min [1, 5]: 98 µM
- Km at 30 min ([1]; read-out: Km of cellular uptake, Eadie-Hofstee, first transport mechanism): 8.3 µM
- Km at 30 min ([1]; read-out: Km of cellular uptake, Eadie-Hofstee, second transport mechanism): 680 µM
- Vmax of cellular uptake (maximum transport capacity) (mouse primary astrocytes): 1.4 ± 0.4 nmol/min/mg protein
- Vmax of cellular uptake, Eadie-Hofstee, first transport mechanism (mouse primary astrocytes; mechanism with Km 8.3 μM): 0.036 ± 0.007 nmol/min/mg protein
- Vmax of cellular uptake, Eadie-Hofstee, second transport mechanism (mouse primary astrocytes; mechanism with Km 680 μM): 2.53 ± 0.17 nmol/min/mg protein
- IC50 [2]: 12 µM and 12.3 µM
- Inhibition of astrocyte cell growth (primary astrocytes; concentrations over 100 μM, vs untreated control): 38–68%
- BChE IC50 value [3]: No inhibition
- Brain caspase-3/-7 amounts, preventative treatment (caspase-3/-7): 156%
- Brain caspase-3/-7 amounts, curative treatment (caspase-3/-7): 105%
- Amount of released PFI in the brain after the prodrug treatment ([4]; after PFI-PD 23 μmol/kg): 0.01 nmol/g of tissue
- Brain levels of PFI after PFI dosing ([4]; dose 23 μmol/kg, LC-MS/MS): below the detection limit
